Data taken from patent US20220125877A1, “METHOD FOR TREATING COLORECTAL CANCER” (SUN YAT-SEN UNIVERSITY, priority 2019, published 2022).

Test: Concentration of metformin in tumor tissues by mass spectrometry
Assay type: in vivo
Settings: KRAS mutation vs KRAS wildtype tumor tissues, FIG. 11F
From the text: The concentration of metformin in KRAS wildtype and mutation tumor tissues was detected by mass spectrometry.

In the case of `CN(C)C(=N)N=C(N)N` [metformin], the “concentration of metformin in tumor tissues” value is reported as “higher than that in the KRAS wildtype tumor tissues”.
